Assay results published in ChEMBL document CHEMBL4418500, “Methods of preventing or treating atherosclerosis with inhibitors of specific isoenzymes of human neuraminidase” (2018).
In brackets after ≈: the same amount, converted by molar mass. Activity calls are given as the source filed them. No cut-off for these calls is given here.

Key:
Mus musculus [1] = assay: Reduction in size of fatty streaks in aortic root of normal diet fed 12 week old ApoE KO mouse at 1 mg/kg, ip treated for 4 weeks (once every 2 days for first 2 weeks and then every day for third and the fourth weeks) by Oil Red O staining based assay relative to control; type: functional
[2] = target: T1, Sialidase-3 (Homo sapiens) (UniProt Q9UQ49); conditions: 1 mM
T1 sequence (whole entry): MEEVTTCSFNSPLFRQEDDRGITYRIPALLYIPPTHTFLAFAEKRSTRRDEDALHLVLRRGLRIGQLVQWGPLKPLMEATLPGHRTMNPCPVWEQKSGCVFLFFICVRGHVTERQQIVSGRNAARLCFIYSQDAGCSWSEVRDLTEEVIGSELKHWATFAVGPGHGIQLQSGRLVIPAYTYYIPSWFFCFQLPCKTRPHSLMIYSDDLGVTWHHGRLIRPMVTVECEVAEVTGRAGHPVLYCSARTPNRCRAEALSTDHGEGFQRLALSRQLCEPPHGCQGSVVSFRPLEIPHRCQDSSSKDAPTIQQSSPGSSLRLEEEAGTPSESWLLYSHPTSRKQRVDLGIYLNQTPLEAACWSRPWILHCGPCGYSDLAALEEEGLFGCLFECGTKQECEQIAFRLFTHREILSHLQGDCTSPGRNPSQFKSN

Mus musculus [3] = assay: Reduction in size of fatty streaks in aortic root of normal diet fed 16 week old ApoE KO mouse at 30 mg/kg, ip treated for 2 weeks (once every 2 days for first week and then every day for second week) by Oil Red O staining based assay relative to control; type: functional
Mus musculus [4] = assay: Reduction in size of fatty streaks in aortic root of normal diet fed 12 week old ApoE KO mouse at 30 mg/kg, ip treated for 4 weeks (once every 2 days for first 2 weeks and then every day for third and the fourth weeks) by Oil Red O staining based assay relative to control; type: functional
[5] = Toxicity in normal diet fed 12 week old ApoE KO mouse assessed as effect on body weight at 1 mg/kg, ip treated for 4 weeks (once every 2 days for first 2 weeks and then every day for third and the fourth weeks); type: organism-based; conditions: in vivo
[6] = Toxicity in normal diet fed 12 week old ApoE KO mouse assessed as effect on behavior at 1 mg/kg, ip treated for 4 weeks (once every 2 days for first 2 weeks and then every day for third and the fourth weeks); type: organism-based; conditions: in vivo
Mus musculus [7] = assay: Inhibition of neuraminidase-4 activity in spleen of wild type C57BI6 mouse at 30 mg/kg, ip dosed for 2 consecutive days and measured 17 hrs post last dose by X-Neu5Ac substrate based histochemical assay relative to control; type: functional
[8] = Toxicity in normal diet fed 12 week old ApoE KO mouse assessed as induction of leukocyte infiltration at 1 mg/kg, ip treated for 4 weeks (once every 2 days for first 2 weeks and then every day for third and the fourth weeks); type: organism-based; conditions: in vivo
[9] = Solubility in water; type: physicochemical
Mus musculus [10] = assay: Inhibition of neuraminidase-3 activity in spleen of wild type C57BI6 mouse at 30 mg/kg, ip dosed for 2 consecutive days and measured 24 hrs post last dose by X-Neu5Ac substrate based histochemical assay relative to control; type: functional
[11] = Toxicity in normal diet fed 12 week old ApoE KO mouse assessed as induction of cytoplasmic vacuolization at 1 mg/kg, ip treated for 4 weeks (once every 2 days for first 2 weeks and then every day for third and the fourth weeks); type: organism-based; conditions: in vivo
[12] = Toxicity in normal diet fed 12 week old ApoE KO mouse assessed as induction of bleeding at 1 mg/kg, ip treated for 4 weeks (once every 2 days for first 2 weeks and then every day for third and the fourth weeks); type: organism-based; conditions: in vivo
Mus musculus [13] = species: Mus musculus; assay: Effect on lipid composition in ApoE KO mouse assessed as increase in LDL cholesterol relative to control; type: functional
Mus musculus [14] = species: Mus musculus; assay: Effect on lipid composition in ApoE KO mouse assessed as effect on HDL-cholesterol level; type: functional, organism-based
Mus musculus [15] = species: Mus musculus; assay: Effect on lipid composition in ApoE KO mouse assessed as effect on triglycerides level; type: functional, organism-based
Mus musculus [16] = species: Mus musculus; assay: Effect on lipid composition in ApoE KO mouse assessed as effect on total cholesterol level; type: functional, organism-based
[17] = Toxicity in normal diet fed 16 week old ApoE KO mouse assessed as induction of cytoplasmic vacuolation at 30 mg/kg, ip treated for 2 weeks (once every 2 days for first week and then every day for second week) by Oil Red O staining based assay relative to control; type: organism-based; conditions: in vivo
[18] = Toxicity in normal diet fed 16 week old ApoE KO mouse assessed as effect on body weight at 30 mg/kg, ip treated for 2 weeks (once every 2 days for first week and then every day for second week) by Oil Red O staining based assay relative to control; type: organism-based; conditions: in vivo
[19] = Toxicity in normal diet fed 12 week old ApoE KO mouse assessed as effect on behavior at 30 mg/kg, ip treated for 4 weeks (once every 2 days for first 2 weeks and then every day for third and the fourth weeks); type: organism-based; conditions: in vivo
Mus musculus [20] = assay: Inhibition of neuraminidase-1 activity in normal diet fed ApoE KO mouse at 30 mg/kg, ip treated for 2 weeks (once every 2 days for first week and then every day for second week) by X-Neu5Ac substrate based histochemical assay relative to control; type: functional
[21] = Toxicity in normal diet fed 16 week old ApoE KO mouse assessed as induction of leukocyte infiltration at 30 mg/kg, ip treated for 2 weeks (once every 2 days for first week and then every day for second week) by Oil Red O staining based assay relative to control; type: organism-based; conditions: in vivo
[22] = Toxicity in normal diet fed 16 week old ApoE KO mouse assessed as induction of bleeding at 30 mg/kg, ip treated for 2 weeks (once every 2 days for first week and then every day for second week) by Oil Red O staining based assay relative to control; type: organism-based; conditions: in vivo
[23] = Toxicity in normal diet fed 16 week old ApoE KO mouse assessed as effect on behavior at 30 mg/kg, ip treated for 2 weeks (once every 2 days for first week and then every day for second week) by Oil Red O staining based assay relative to control; type: organism-based; conditions: in vivo
[24] = Toxicity in normal diet fed 12 week old ApoE KO mouse assessed as induction of cytoplasmic vacuolization at 30 mg/kg, ip treated for 4 weeks (once every 2 days for first 2 weeks and then every day for third and the fourth weeks); type: organism-based; conditions: in vivo
Mus musculus [25] = assay: Inhibition of neuraminidase-1 activity in kidney of wild type C57BI6 mouse at 30 mg/kg, ip dosed for 2 consecutive days and measured 17 hrs post last dose by X-Neu5Ac substrate based histochemical assay relative to control; type: functional
[26] = Toxicity in normal diet fed 12 week old ApoE KO mouse assessed as effect on body weight at 30 mg/kg, ip treated for 4 weeks (once every 2 days for first 2 weeks and then every day for third and the fourth weeks); type: organism-based; conditions: in vivo
[27] = Toxicity in normal diet fed 12 week old ApoE KO mouse assessed as induction of leukocyte infiltration at 30 mg/kg, ip treated for 4 weeks (once every 2 days for first 2 weeks and then every day for third and the fourth weeks); type: organism-based; conditions: in vivo
[28] = Toxicity in normal diet fed 12 week old ApoE KO mouse assessed as induction of bleeding at 30 mg/kg, ip treated for 4 weeks (once every 2 days for first 2 weeks and then every day for third and the fourth weeks); type: organism-based; conditions: in vivo

SMILES | Activity (Mus musculus [1]) | Activity [5] | Activity [6] | Activity [8] | Activity [11] | Activity [12] | Activity (Mus musculus [13]) [%] | Activity (Mus musculus [14]) | Activity (Mus musculus [15]) | Activity (Mus musculus [16]) | other results
CC(=O)N[C@H]1[C@H]([C@H](O)[C@H](O)Cn2cc(-c3ccc(-c4ccccc4)cc3)nn2)OC(C(=O)O)=C[C@@H]1NC(=N)N | Active |  |  |  |  |  |  |  |  |  | 
CC(=O)N[C@H]1[C@H]([C@H](O)[C@H](O)CO)OC(C(=O)O)=C[C@@H]1O |  |  |  |  |  |  |  |  |  |  | inhibition [2]: Active
CCCCC(=O)NC[C@@H](O)[C@@H](O)[C@@H]1OC(C(=O)O)=C[C@H](O)[C@H]1NC(C)=O |  |  |  |  |  |  |  |  |  |  | Activity (Mus musculus [3]): Active; Activity (Mus musculus [4]): Active
COC(=O)C1=C[C@H](O)[C@@H](NC(C)=O)[C@H]([C@H](O)[C@H](O)Cn2cc(-c3ccc(-c4ccccc4)cc3)nn2)O1 | 25 - 50% | Non-Toxic | Non-Toxic | Non-Toxic | Non-Toxic | Non-Toxic |  |  |  |  | inhibition in vivo at 30 mg/kg (Mus musculus [7]): 70 to 80%; solubility ([9]; buffer): 100 µg/mL (≈ 197 µM); inhibition in vivo at 30 mg/kg (Mus musculus [10]): 70 to 80%
CCCCC(=O)N[C@H]1[C@H]([C@H](O)[C@H](O)Cc2ccc(-c3ccccc3)cc2)OC(C(=O)O)=C[C@@H]1O | Active |  |  |  |  |  |  |  |  |  | 
COC(=O)C1=C[C@H](NC(=N)N)[C@@H](NC(C)=O)[C@H]([C@H](O)[C@H](O)Cn2cc(-c3ccc(-c4ccccc4)cc3)nn2)O1 | 25 - 50% | Non-Toxic | Non-Toxic | Non-Toxic | Non-Toxic | Non-Toxic | 50 | inactive | inactive | inactive | 
CCCCC(=O)N[C@H]1[C@H]([C@H](O)[C@H](O)Cc2ccc(-c3ccccc3)cc2)OC(C(=O)OC)=C[C@@H]1O | 25 - 50% | Non-Toxic | Non-Toxic | Non-Toxic | Non-Toxic | Non-Toxic | 50 | inactive | inactive | inactive | solubility ([9]; water, read-out: solubility): ≥ 10000 µg/mL
CC(=O)N[C@H]1[C@H]([C@H](O)[C@H](O)Cn2cc(-c3ccc(-c4ccccc4)cc3)nn2)OC(C(=O)O)=C[C@@H]1O | Active |  |  |  |  |  |  |  |  |  | 
CCCCC(=O)NC[C@@H](O)[C@@H](O)[C@@H]1OC(C(=O)OC)=C[C@H](O)[C@H]1NC(C)=O |  |  |  |  |  |  | 50 | inactive | inactive | inactive | Activity [17]: Non-Toxic; Activity [18]: Non-Toxic; Activity [19]: Non-Toxic; inhibition in vivo at 30 mg/kg (Mus musculus [20]): 70 to 80%; solubility ([9]; water, read-out: solubility): ≥ 1000 µg/mL; Activity [21]: Non-Toxic; Activity (Mus musculus [3]): 25%; Activity [22]: Non-Toxic; Activity [23]: Non-Toxic; Activity (Mus musculus [4]): 25 - 50%; Activity [24]: Non-Toxic; inhibition in vivo at 30 mg/kg (Mus musculus [25]): 90%; Activity [26]: Non-Toxic; Activity [27]: Non-Toxic; Activity [28]: Non-Toxic
